Tests used:
Format in all cases: cell-based
[1] = tested on: cut pieces from the stem of Australian laurel, Pittosporaceae; assay: Tissue culture of cut pieces in culture medium containing thidiazuron and naphthaleneacetic acid (Example 1, Table 1); conditions: for Numbers of cut pieces leading to stem or leaf/10 cut pieces: NAA 0 μM, WP culture medium, 6 weeks
Protocol: (§1) A WP culture medium or a MS culture medium was used as a fundamental culture medium. As a carbon source was used 1% sucrose, and 0.3% Gellan-Gum (Trade name) was used as a gelling agent. An Australian laurel, Pittosporaceae seed was treated with 70% ethanol for 1 hour with 2.5% sodium hypochlorite for 1 hour, and sterilized by washing it with sterilized water. After water was fed to the seed 2 night or more at 4° C. in dark, it was planted in the culture medium. After germination, a seedling of four weeks age was used for a tissue culturing. Cut pieces, 1 mm thick, were prepared from a leave, a stem and a roof of the living matter, and planted and cultured in the same culture medium as mentioned above but containing naphthaleneacetic acid and thidiazuron (TDZ) as a hormon. […] About 2 months after the planting, a shoot was cut out from the polyblast, and indoleacetic acid was applied to a cut portion of the shoot. The shoot treated with indoleacetic acid was inserted into a solid culture medium or a mixed soil of perlite and vermiculite containing a culture medium. The shoot was cultured and rooted.
Cut pieces from the stem was cultured in the WP culture medium added with thidiazuron and naphthaleneacetic acid for 6 weeks, and observation results thereof are shown in Table 1.

[2] = tested on: leaf of the Australian laurel, Pittosporaceae; assay: Redifferentiation from the leaf in WP culture medium (Example 3, Table 2); conditions: NAA 0 μM, 22 to 28° C., bright place
Protocol: as §1
Redifferentiation from the leaf and the stem of the Australian laurel, Pittosporaceae was examined. The WP culture medium was used as a culture medium. A culturing temperature was set in a range of 22 to 28° C. The Australian laurel, Pittosporaceae was cultured in a bright place. […]

[3] = tested on: Embryo (text: stem) of the Australian laurel, Pittosporaceae; assay: Redifferentiation, column Embryo, in WP culture medium (Example 3, Table 2); conditions: for Redifferentiation Embryo: NAA 0 μM, WP culture medium, 22 to 28° C., bright place
Protocol: as §1
Redifferentiation from the leaf and the stem of the Australian laurel, Pittosporaceae was examined. The WP culture medium was used as a culture medium. A culturing temperature was set in a range of 22 to 28° C. The Australian laurel, Pittosporaceae was cultured in a bright place. The planting condition and the other culturing conditions were the same as those in Example 1.

O=C(Nc1ccccc1)Nc1cnns1 [TDZ, thidiazuron]
Numbers of cut pieces leading to stem or leaf/10 cut pieces ([1]; TDZ 0.1 μm): 0 /10 cut pieces | Numbers of cut pieces leading to stem or leaf/10 cut pieces ([1]; TDZ 10 μm): 0 /10 cut pieces | Redifferentiation ([1]; concentration of thidiazuron not less than 10 μM, culture medium containing naphthaleneacetic acid): redifferentiation was confirmed | Redifferentiation Leaf ([2]; TDZ 10^4 nM): 0% | Redifferentiation Leaf ([2]; TDZ 10^5 nM): 0% | Redifferentiation Embryo ([3]; TDZ 10^4 nM): 5.0% | Redifferentiation Embryo ([3]; TDZ 10^5 nM): 10.0% | Redifferentiation percentages ([3]; cultures containing 10^4 to 10^5 nM thidiazuron): considerably high redifferentiation percentages

— patent publication US6800482B2, “Cultured cells of Australian laurel, Pittosporaceae and a method for culturing tissues by using said cultured cells” (Hiroshima University, priority 2001, dated 2004)
